From the supplement of paper PMC10307832

Key:
Experiment in all cases: relative viability (nuclei count vs DMSO), 5 days (fraction); higher = more cells survive
Pictilisib + Bortezomib = compound: CS(=O)(=O)N1CCN(Cc2cc3nc(-c4cccc5[nH]ncc45)nc(N4CCOCC4)c3s2)CC1 [Pictilisib] + CC(C)C[C@H](NC(=O)[C@H](Cc1ccccc1)NC(=O)c1cnccn1)B(O)O [Bortezomib] (partner 0.002 µM)
Summary of the method: (§1)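 Lung cancer cell lines in 1536-well plates got either a single drug or a fixed anchor-drug dose together with five library-drug doses (not always all listed) in √10 steps, by pin tool, on the day after seeding. Nuclei were counted after 5 days, and relative viability is the treated-to-vehicle ratio of nuclei counts. Values are medians of duplicate plates.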

Pictilisib + OSI-027 = compound: CS(=O)(=O)N1CCN(Cc2cc3nc(-c4cccc5[nH]ncc45)nc(N4CCOCC4)c3s2)CC1 [Pictilisib] + COc1cccc2cc(-c3nc([C@H]4CC[C@H](C(=O)O)CC4)n4ncnc(N)c34)[nH]c12 [OSI-027] (partner 0.5 µM)
Summary of the method: as §1

MK-2206 + Navitoclax = compound: NC1(c2ccc(-c3nc4ccn5c(=O)[nH]nc5c4cc3-c3ccccc3)cc2)CCC1 [MK-2206] + CC1(C)CCC(c2ccc(Cl)cc2)=C(CN2CCN(c3ccc(C(=O)NS(=O)(=O)c4ccc(N[C@H](CCN5CCOCC5)CSc5ccccc5)c(S(=O)(=O)C(F)(F)F)c4)cc3)CC2)C1 [Navitoclax] (partner 0.5 µM)
Summary of the method: as §1

MK-2206 + Pictilisib = compound: NC1(c2ccc(-c3nc4ccn5c(=O)[nH]nc5c4cc3-c3ccccc3)cc2)CCC1 [MK-2206] + CS(=O)(=O)N1CCN(Cc2cc3nc(-c4cccc5[nH]ncc45)nc(N4CCOCC4)c3s2)CC1 [Pictilisib] (partner 1 µM)
Summary of the method: as §1

MK-2206 + Linsitinib = compound: NC1(c2ccc(-c3nc4ccn5c(=O)[nH]nc5c4cc3-c3ccccc3)cc2)CCC1 [MK-2206] + C[C@]1(O)C[C@@H](c2nc(-c3ccc4ccc(-c5ccccc5)nc4c3)c3c(N)nccn32)C1 [Linsitinib] (partner 1 µM)
Summary of the method: as §1

Row | Cell Line | relative viability (Pictilisib + Bortezomib; first compound 0.02 µM) | relative viability (Pictilisib + Bortezomib; first compound 0.06325 µM) | relative viability (Pictilisib + Bortezomib; first compound 0.6325 µM) | relative viability (Pictilisib + Bortezomib; first compound 2 µM) | relative viability (Pictilisib + OSI-027; first compound 0.02 µM) | relative viability (Pictilisib + OSI-027; first compound 0.06325 µM) | relative viability (Pictilisib + OSI-027; first compound 0.6325 µM) | relative viability (Pictilisib + OSI-027; first compound 2 µM) | relative viability (MK-2206 + Navitoclax; first compound 0.01 µM) | relative viability (MK-2206 + Navitoclax; first compound 0.03162 µM) | relative viability (MK-2206 + Navitoclax; first compound 0.3162 µM) | relative viability (MK-2206 + Navitoclax; first compound 1 µM) | relative viability (MK-2206 + Pictilisib; first compound 0.01 µM) | relative viability (MK-2206 + Pictilisib; first compound 0.03162 µM) | relative viability (MK-2206 + Pictilisib; first compound 0.3162 µM) | relative viability (MK-2206 + Pictilisib; first compound 1 µM) | relative viability (MK-2206 + Linsitinib; first compound 0.01 µM) | relative viability (MK-2206 + Linsitinib; first compound 0.03162 µM) | relative viability (MK-2206 + Linsitinib; first compound 0.3162 µM) | relative viability (MK-2206 + Linsitinib; first compound 1 µM)
1 | H3255 | 0.881 | 0.832 | 0.632 | 0.395 | 0.58 | 0.578 | 0.389 | 0.309 | 0.519 | 0.579 | 0.439 | 0.312 | 0.477 | 0.45 | 0.399 | 0.384 | 0.975 | 0.924 | 0.847 | 0.726
2 | Calu-6 | 1.09 | 0.933 | 0.925 | 0.894 | – | – | – | – | 0.937 | 0.9 | 0.861 | 0.828 | 0.93 | 0.895 | 0.86 | 0.873 | – | 0.961 | 0.963 | 0.926
3 | SW 900 | – | – | – | – | 0.655 | 0.715 | 0.501 | 0.289 | – | – | – | – | – | – | – | – | – | – | – | –
4 | NCI-H650 | 1.04 | 0.938 | 0.526 | 0.445 | 0.563 | 0.555 | 0.425 | 0.321 | – | – | – | – | 0.804 | 0.901 | 0.87 | 0.81 | 0.809 | 1.04 | 0.798 | 0.791
5 | NCI-H460 | 1.1 | 1.36 | 0.57 | 0.111 | 0.612 | 0.576 | 0.212 | 0.0454 | 1.16 | 1.16 | 1.21 | 1.07 | 0.355 | 0.307 | 0.294 | 0.222 | 0.733 | 0.801 | 0.325 | 0.229
6 | NCI-H2228 | 0.915 | 1.04 | 0.689 | 0.528 | 0.587 | 0.431 | 0.283 | 0.155 | 1.12 | 0.724 | 0.678 | 0.585 | 0.356 | 0.455 | 0.198 | 0.297 | 0.546 | 0.677 | 0.303 | 0.264
7 | LCLC-103H | 1.02 | 0.982 | 0.779 | 0.775 | 0.494 | 0.438 | 0.287 | 0.262 | – | – | – | – | 0.642 | 0.688 | 0.54 | 0.701 | 1.08 | 1.07 | 1 | 1.12
8 | NCI-H1650 | 0.199 | 0.205 | 0.207 | 0.172 | 0.677 | 0.713 | 0.368 | 0.207 | 1.11 | 1 | 1.06 | 1.02 | 0.549 | 0.566 | 0.476 | 0.56 | – | – | – | –
9 | LK-2 | – | – | – | – | 0.183 | 0.208 | 0.15 | 0.142 | 0.837 | 0.938 | 0.684 | 0.61 | 0.684 | 0.707 | 0.583 | 0.667 | 0.511 | 0.641 | 0.627 | 0.699
10 | NCI-H2342 | – | – | – | – | 0.541 | 0.605 | 0.551 | 0.417 | – | – | – | – | – | – | – | – | – | – | – | –
11 | NCI-H522 | – | – | – | – | 0.635 | 0.719 | 0.64 | 0.57 | – | – | – | – | – | – | – | – | – | – | – | –
12 | EBC-1 | 0.474 | 0.603 | 0.414 | 0.255 | – | – | – | – | 0.455 | 0.385 | 0.23 | 0.131 | 0.459 | 0.314 | 0.176 | 0.164 | 0.795 | 0.951 | 0.681 | 0.557
13 | ChaGo-K-1 | 1.16 | 1.1 | 1.09 | 0.828 | 0.586 | 0.626 | 0.411 | 0.314 | 1.3 | 1.17 | 0.816 | 0.454 | 0.914 | 0.981 | 0.692 | 0.401 | – | – | – | –
14 | IA-LM | 0.791 | 0.721 | 0.732 | 0.308 | – | – | – | – | 0.724 | 0.835 | 0.801 | 0.669 | 0.299 | 0.256 | 0.26 | 0.141 | 0.55 | 0.632 | 0.597 | 0.409
15 | NCI-H1703 | 0.327 | 0.235 | 0.19 | 0.13 | – | – | – | – | 1.15 | 0.961 | 0.621 | 0.776 | 0.239 | 0.232 | 0.236 | 0.254 | 1.01 | 1.03 | 0.544 | 0.748
16 | NCI-H358 | – | – | – | – | 0.684 | 0.664 | 0.357 | 0.127 | – | – | – | – | 0.378 | 0.333 | 0.355 | 0.347 | 0.79 | 0.707 | 0.542 | 0.602
17 | A549 | – | – | – | – | – | – | – | – | 1.19 | 1.08 | 1.11 | 0.991 | 0.496 | 0.494 | 0.394 | 0.304 | 0.657 | 0.651 | 0.574 | 0.512
18 | NCI-H1623 | – | – | – | – | 0.431 | 0.414 | 0.342 | 0.244 | – | – | – | – | – | – | – | – | – | – | – | –
19 | NCI-H1563 | 0.992 | 0.839 | 0.605 | 0.554 | 0.737 | 0.713 | 0.554 | 0.57 | – | – | – | – | 0.625 | 0.665 | 0.633 | 0.626 | 1.12 | 1.22 | 0.797 | 0.742
20 | NCI-H1395 | – | – | – | – | 0.796 | 0.658 | 0.568 | 0.392 | 1.17 | 1.63 | 1.12 | 0.927 | 0.653 | 0.677 | 0.462 | 0.498 | 1.22 | 1.03 | 0.915 | 1.23
21 | NCI-H1944 | – | – | – | – | 0.403 | 0.345 | 0.249 | 0.179 | 1.07 | 1.03 | 1.02 | 0.992 | 0.361 | 0.346 | 0.361 | 0.34 | 1.27 | 1.17 | 1.15 | 1.17
22 | ABC-1 | 0.313 | 0.316 | 0.281 | 0.223 | 0.434 | 0.462 | 0.337 | 0.335 | – | – | – | – | 0.629 | 0.728 | 0.721 | 0.701 | 0.799 | 0.742 | 0.881 | 0.868
